Test results as given in article PMC4058377 (Neurochemistry international, 2014).

Columns and labels:
[1] = target: T1, X7C DAT (Homo sapiens, UniProt Q01959, C135A/C306A/C319M/C342M/C581L/C90A); test: [3H]MFZ 2-12 binding, membranes
T1 sequence (Q01959 23-620 C90A/C135A/C306A/C319M/C342M/C581L): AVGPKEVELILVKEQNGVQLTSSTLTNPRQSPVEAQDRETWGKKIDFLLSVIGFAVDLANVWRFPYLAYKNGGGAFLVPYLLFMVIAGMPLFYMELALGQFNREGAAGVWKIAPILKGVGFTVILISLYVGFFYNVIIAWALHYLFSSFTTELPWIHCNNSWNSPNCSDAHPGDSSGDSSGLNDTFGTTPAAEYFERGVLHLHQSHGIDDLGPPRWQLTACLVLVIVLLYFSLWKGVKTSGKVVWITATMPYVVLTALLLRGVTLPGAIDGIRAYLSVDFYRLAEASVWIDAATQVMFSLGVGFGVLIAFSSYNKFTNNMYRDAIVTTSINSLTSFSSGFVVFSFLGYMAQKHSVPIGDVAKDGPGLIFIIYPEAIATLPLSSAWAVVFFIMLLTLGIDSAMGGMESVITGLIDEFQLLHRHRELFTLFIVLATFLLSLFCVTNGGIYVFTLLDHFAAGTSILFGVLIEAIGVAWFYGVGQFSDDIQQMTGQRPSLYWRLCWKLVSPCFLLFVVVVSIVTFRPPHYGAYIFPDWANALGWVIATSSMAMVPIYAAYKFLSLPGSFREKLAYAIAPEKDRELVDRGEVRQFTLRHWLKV

[2] = target: T2, all the remaining mutants as well as the background construct X7C (Homo sapiens, UniProt Q01959, C135A/C306A/C319M/C342M/C581L/C90A); test: Effect of Zn2+ on [3H]tyramine uptake; assay type: cell-based; details: 10 μM Zn^2+, 15 min prior to and during uptake
T2 sequence (Q01959 23-620 C90A/C135A/C306A/C319M/C342M/C581L): T1 sequence (Q01959 23-620 C90A/C135A/C306A/C319M/C342M/C581L)

[3] = tested on: WT DAT; details: ref Loland et al., 1999, Norregaard et al., 1998; cited from earlier work
[4] = tested on: DAT Tyr335 to alanine; details: ref Loland et al., 2002; cited from earlier work
[5] = target: T1, X7C DAT
[6] = substrate: NCCc1ccc(O)cc1; test: cells, lysate or membranes; details: other: X7C; pH 7.4; 37.0 °C

Molecule: COC(=O)[C@H]1[C@@H](c2ccc(Cl)c(Cl)c2)C[C@@H]2CC[C@H]1N2C [MFZ 2-12]
- MFZ 2-12 Bmax ± SEM [1]: 5 ± 2 pmol/mg
- Kd ([1]; read-out: MFZ 2-12 KD ± SEM): 2.2 ± 0.5 nM

Molecule: [Cl-].[Cl-].[Zn+2] [Zn^2+, ZnCl2]
- effect of Zn^2+ on tyramine uptake [2]: inhibited uptake
- effect of Zn^2+ on dopamine uptake [3]: inhibits
- effect of Zn^2+ on low uptake capacity [4]: substantially restored

Molecule: NCCc1ccc(O)cc1 [tyramine]
- Vmax for tyramine uptake [5]: 29 ±8

B1: X7C DAT (Homo sapiens; C135A/C306A/C319M/C342M/C581L/C90A) (protein)
chain: T1 sequence (Q01959 23-620 C90A/C135A/C306A/C319M/C342M/C581L)
- Km [6]: 2.6 µM
